Test results published in patent US8624032B2, “Compound libraries made through phosphine-catalyzed annulation/Tebbe/Diels-Alder reactions” (The Regents of the University of California, priority 2011, dated 2014).
pIC50: −log10 of the molar value. In brackets after ≈: the same amount, converted by molar mass.

What was measured:
cell migration = conditions: natural product comparator; read-out: IC50 (inhibition of cell migration); cited from earlier work
[1] = system: MDA-MB-231 human breast cancer cells; experiment: wound closure assay (cell migration); format: cell-based; conditions: for effect on wound closure or cytotoxicity in the screen: 24 hours after wounding
Method: In the wound closure assay, MDA-MB-231 cells (American Type Culture Collection number: HTB-26) were cultured in 75 cm^2 tissue culture flasks with growth medium (DMEM containing 10% fetal bovine serum) at 37° C. under 5% CO2 in a humidified tissue culture incubator. The cells were grown to 80% confluence and then treated with trypsin, collected, and replated in 96-well tissue culture plates for initial screening. Once confluent, the cell cultures were treated with compounds at various concentrations or with DMSO carrier solvent alone with fresh growth medium. In all cases, the final DMSO concentration was 0.05%. After 30 minutes, the cell cultures were wounded with a sterile micropipette tip, and the wound closure experiments were performed essentially as described previously.
Cell monolayers in 24-well tissue culture plates were treated with different concentrations of each compound 30 minutes before wounding and then wounded, as described above.
Digital images of the wounds were captured immediately after wounding and at 3 h, 6 h, 9 h, 12 h, and 24 hours post-wounding. The open wound areas, as a function of time after wounding, were determined with NIH Image J software to establish the mean percent wound closure over time for each treatment and parallel controls, as previously described. The mean percent wound closure values at 9 hours post-wounding for all concentrations up to the maximal subtoxic concentration were subjected to nonlinear regression to calculate IC50 values and 95% confidence intervals for inhibition of wound closure.
The Minimum Inhibitory Concentration (MIC) column of Table 1 represents the lowest concentration tested at which there was statistically significant inhibitory activity in the wound closure assay as determined by unpaired, two-tailed Student's t-tests (P<0.05).
Half-maximal inhibitory concentration (IC50) values shown in Table 1 were calculated for inhibition of wound closure at 9 hours post-wounding from concentration—response profiles for a range of subtoxic concentrations (n=7−9 wounds from three independent experiments).

MDA-MB-231 cells [2] = experiment: cell invasion assay through Matrigel in transwell chambers; format: cell-based, human; conditions: subtoxic concentrations, 24 hours
Method: Cell migration is a necessary condition for the metastasis of solid tumors. A major determinant of the metastatic potential of a cancer cell is its ability to invade through extracellular matrix barriers. Therefore, compounds 90, 92 and 94 were tested for their activities using a cell invasion assay.
Compounds 90, 92, and 94 were analyzed for their ability to inhibit the invasion of cells through Matrigel in a cell invasion assay. The assay was performed in transwell chambers according to the manufacturer's instructions (BD Biosciences). The polycarbonate membranes (8 μm pore size) of the upper chambers were coated with Matrigel (25 μg). Growth medium containing the tested compound or DMSO alone was added to the lower chambers ([…] per well in 24-well BD Falcon TC companion plates). […] After removing noninvaded cells from the upper surface of the membrane with a cotton swab, the invaded cells on the lower surface were fixed with MeOH, stained with crystal violet solution, rinsed with water, air-dried, and then counted by using an inverted microscope. In parallel experiments, cell viability, determined using the trypan blue dye exclusion assay at various concentrations of the tested compounds, was evaluated under the conditions of the cell invasion assay.

MDA-MB-231 cells [3] = experiment: tetrazolium salt-based cell proliferation and viability assay (CCK-8); set-up: species or system human; conditions: 48 hours
Method: Compounds 90, 92 and 94 were also evaluated in a tetrazolium salt-based cell proliferation and viability assay.
The cell proliferation and cell viability assay was conducted according to the manufacturer's instructions (CCK-8; Dojindo Molecular Technologies). MDA-MB-231 cells were plated in 96-well tissue culture plates ([…] per well of a 4×10^4 cells per mL suspension in growth medium) and incubated for 24 hours at 37° C. under 5% CO2. The cells were then treated with the tested compounds at various concentrations or with DMSO alone. In all cases, the final DMSO concentration was 0.05%. At the same time, other cells from parallel plates were analyzed using the CCK-8 assay to establish the cell density at the start of the experiment. After 48 hours of incubation, the cell numbers for the experimental samples were determined and compared with the initial cell numbers.

[4] = system: MDA-MB-231 human breast cancer cells; experiment: trypan blue dye exclusion assay at the end of wound closure experiments; format: cell-based; conditions: lowest concentration tested with statistically significant cell death by the end of wound closure experiments
Method: Compounds were first screened at 50 μm and evaluated for their antimigratory activity and cytotoxicity. This was accomplished by scoring wounds as opened or closed as a function of time following wounding to determine the time to closure. Cell viability was determined by the trypan blue dye exclusion assay conducted at the end of each experiment, with the ratio of dye-non-excluding (dead) to dye-excluding (live) cells compared with the control, described in greater detail in Example 7.
Minimum lethal concentration (MLC) represents the lowest concentration tested at which there was statistically significant cell death, measured using the trypan blue dye exclusion assay, by the end of wound closure experiments. The minimum lethal concentration (MLC) for compound 94 under the conditions of the cell invasion assay was 50 μm. In the cell invasion assay, cells were at a lower density than in the wound closure assay, and compounds were added at the same time as the cells, rather than after attachment and growth.

Q: With `CO[C@H]1/C=C/CC/C=C/C(=O)O[C@H]([C@H](C)C(=O)CCCC2CC(=O)NC(=O)C2)/C(C)=C\[C@@H](C)[C@@H]1O` [migrastatin] as the compound, how does the pIC50 (cell migration) read?
A: 4.54

Q: With `CCOc1cc2c(c3c1C(c1ccccc1)N(S(=O)(=O)c1ccc(C)cc1)C3)C(=O)C=CC2=O` (centres unmarked) [Compound 92] as the compound, how does the “effect on wound closure or cytotoxicity in the screen” value (“effect” for short) ([1]; 2 μm) read?
A: inactive

Q: What about the “effect” value ([1]; 10 μm) of the same compound?
A: inhibit wound closure or were cytotoxic

Q: And the “effect” value ([1]; 50 μm)?
A: inhibit wound closure or were cytotoxic

Q: What about the pIC50 ([1]; Homo sapiens, MDA-MB-231, 9 hours post-wounding, subtoxic concentrations, n=7-9 wounds from three independent experiments, read-out: IC50 (inhibition of wound closure)) of the same compound?
A: 4.83

Q: What about the “MIC (minimum inhibitory concentration, wound closure)” value ([1]; lowest concentration tested with statistically significant inhibitory activity (P<0.05)) of the same compound?
A: 5 µM (≈ 2.37 µg/mL)

Q: What about the “antimigratory activity in the wound closure assay” value ([1]; subtoxic concentrations) of the same compound?
A: exhibited subtoxic antimigratory activity

Q: What about the “activity against cell invasion” value (MDA-MB-231 cells [2]) of the same compound?
A: inhibit cell migration and invasion at subtoxic concentrations

Q: And the “inhibition of cell growth” value (MDA-MB-231 cells [3]; concentrations that inhibit migration and invasion)?
A: did not inhibit cell growth

Q: What about the cytotoxicity (MDA-MB-231 cells [3]; higher concentrations) of the same compound?
A: become cytotoxic at higher concentrations over a very narrow range

Q: What about the “MLC (minimum lethal concentration)” value [4] of the same compound?
A: 50 µM (≈ 23.7 µg/mL)
